Some test systems named below: 786-0 renal; IGROV1 ovarian; HOP-62 NSCLC; T-47D breast; HS 578T breast; MDA-N; SR leukemia; DU-145 prostate; MDA-MB-231 breast; SNB-78 CNS; DMS 114 small cell lung.
Common to all, as to experiment: growth of human tumour cells (NCI), 48 h

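Five concentrations, 48 hours, 96-well plates. Here, GI50 denotes the concentration required for 50% inhibition of growth. TGI: concentration producing complete growth inhibition.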 Some results are limits rather than exact numbers.

With `Nc1ccccc1Nc1ccccc1C(=O)[O-].Nc1ccccc1Nc1ccccc1C(=O)[O-].[Cu+2]`, the TGI in the test with 786-0 renal, with IGROV1 ovarian and in the test with HOP-62 NSCLC was over 100 µM each time.
Regarding `CSC1=Nc2ccccc2N(C)c2c1c(-c1ccccc1)nn2C`, the TGI in the test with T-47D breast was 49.7 µM; in the test on HS 578T breast it was over 100 µM; with IGROV1 ovarian, over 100 µM; in the test with MDA-N, over 100 µM; in the test with SR leukemia, 95 µM; with DU-145 prostate it was over 100 µM. For the same compound, in the test on MDA-MB-231 breast, the TGI is over 100 µM.
In the case of `O=C1CC(=O)N(c2ccccc2)N1/C(=C/c1ccccc1)c1ccccc1`, the TGI with T-47D breast is 67.8 µM; in the test on HS 578T breast, 45.4 µM; in the test with IGROV1 ovarian it was 43.9 µM; in the test with MDA-N it was 34.3 µM; with SR leukemia it was 40.9 µM; in the test on HOP-62 NSCLC, 54.5 µM. Moreover, the results for the TGI in the test on DU-145 prostate and in the test with MDA-MB-231 breast were 82.6 µM and 30 µM, respectively.
For the compound `C=CC(=O)Nc1cccc(-c2nc(SC)nc(Nc3ccccc3OC)c2C#N)c1`, the GI50 in the test on T-47D breast is 1.59 µM; with HS 578T breast, 2.34 µM; in the test with SR leukemia it was 1.49 µM; in the test on HOP-62 NSCLC, 2.25 µM; in the test with DU-145 prostate it was 1.92 µM; with MDA-MB-231 breast, 1.83 µM. Further, the TGI in the test with T-47D breast was determined as 4.34 µM; with HS 578T breast it was 6.61 µM; with SR leukemia it was 4.19 µM; with HOP-62 NSCLC, 6.17 µM; in the test with DU-145 prostate, 4.96 µM; in the test with MDA-MB-231 breast, 4.33 µM.
For `CC(C)CC(N)C(=O)OCN1C(=O)C2C3C=CC(C2C1=O)C1C2C(=O)N(COC(=O)C(N)CC(C)C)C(=O)C2C31` (stereo not given), the TGI in the test on SNB-78 CNS, in the test on 786-0 renal, in the test on IGROV1 ovarian, in the test on DMS 114 small cell lung and in the test on HOP-62 NSCLC was over 100 µM throughout.
With `CCn1cc(C(c2ccc(Cl)cc2)n2ccnc2)c2cc(Br)ccc21` (stereo not given), the TGI in the test with HS 578T breast worked out at 47.2 µM; in the test with IGROV1 ovarian, 24.8 µM; in the test with MDA-N, 66.2 µM; in the test with SR leukemia, 36.8 µM; with HOP-62 NSCLC, 28.6 µM; in the test with DU-145 prostate, 30.3 µM. Further, in the test on MDA-MB-231 breast, the TGI was determined as 35.8 µM.
As to `Cc1ccc2c(c1)nc(N)n[n+]2[O-]`, the TGI in the test with T-47D breast, in the test with 786-0 renal, with HS 578T breast, in the test with IGROV1 ovarian, in the test on MDA-N and with SR leukemia was over 100 µM each time. The TGI in the test with HOP-62 NSCLC, with DU-145 prostate and in the test with MDA-MB-231 breast was over 100 µM throughout.
For `OCC1CCCC(n2cnc3c(=S)nc[nH]c32)O1` (stereo not given), the TGI with T-47D breast, in the test on 786-0 renal, in the test with HS 578T breast, in the test on IGROV1 ovarian, in the test with MDA-N and in the test with SR leukemia was over 100 µM each time. Also, the TGI in the test with HOP-62 NSCLC, in the test with DU-145 prostate and with MDA-MB-231 breast was over 100 µM in each case.
Take `Cc1[nH]c(/C=C2\C(=O)Nc3ccc(S(=O)(=O)Cc4c(Cl)cccc4Cl)cc32)c(C)c1C(=O)N1CCC[C@@H]1CN1CCCC1`: the GI50 in the test with T-47D breast was 12.2 µM; in the test with HS 578T breast, 7.72 µM; in the test on IGROV1 ovarian, 3.09 µM; in the test with HOP-62 NSCLC, 1.99 µM; in the test with DU-145 prostate, 1.85 µM; in the test with MDA-MB-231 breast it was 1.57 µM. Besides, the TGI is 35.9 µM in the test with T-47D breast; 43.9 µM in the test on HS 578T breast; 7.98 µM in the test on IGROV1 ovarian; 4.55 µM in the test with HOP-62 NSCLC; 3.39 µM with DU-145 prostate; 3.16 µM in the test with MDA-MB-231 breast.
`COC1OC(=O)[C@H]2O[N+]([O-])=C(C)[C@@H]12` (stereo not given in full): the TGI in the test on SNB-78 CNS, in the test on IGROV1 ovarian, with DMS 114 small cell lung and in the test on HOP-62 NSCLC was over 100 µM each time.
Take `O=C(O)c1ccc(NC(c2ccccc2)c2ccc3cccnc3c2O)cc1` (stereo not given): the TGI was 50.1 µM in the test with T-47D breast; over 76.6 µM with 786-0 renal; over 73.7 µM with HS 578T breast; over 95.8 µM in the test with IGROV1 ovarian; over 100 µM with MDA-N; over 100 µM in the test with SR leukemia. The TGI in the test on HOP-62 NSCLC was over 100 µM; in the test with DU-145 prostate it was over 100 µM; in the test on MDA-MB-231 breast, over 61.4 µM.
For the compound `N#Cc1c(NC(=S)NC(=O)c2ccccc2)nc2c(c1-c1ccccc1)CCC2`, the TGI with T-47D breast, in the test with HS 578T breast, in the test with IGROV1 ovarian, with MDA-N, in the test on SR leukemia and with HOP-62 NSCLC was over 100 µM each time. Further, the TGI in the test with DU-145 prostate and in the test with MDA-MB-231 breast was over 100 µM each time.
Consider `COc1cc2oc(-c3ccc(O)cc3)c(OC3OC(C)C(O)C(O)C3O)c(=O)c2c(O)c1OC` (stereo not given), for which the TGI in the test with T-47D breast, in the test with 786-0 renal, with HS 578T breast, in the test with IGROV1 ovarian, in the test on MDA-N and with SR leukemia was over 100 µM in each case. The TGI in the test on HOP-62 NSCLC, with DU-145 prostate and with MDA-MB-231 breast was over 100 µM in each case.
As for `O=[Se]([O-])c1ccccc1.O=[Se]([O-])c1ccccc1.[OH3+].[OH3+].[Pt+2]`, the GI50 was 15.3 µM with SNB-78 CNS, 9.02 µM with IGROV1 ovarian, 3.73 µM with DMS 114 small cell lung and 18.5 µM with HOP-62 NSCLC. For the same compound, the TGI in the test with SNB-78 CNS was 37.5 µM; in the test on IGROV1 ovarian, over 42 µM; in the test with DMS 114 small cell lung, 20.8 µM; with HOP-62 NSCLC, 31.2 µM.
With `O=C(Nc1ccc(I)cc1C(=O)NCCO)c1cccs1`, the TGI with IGROV1 ovarian, in the test on SR leukemia and with HOP-62 NSCLC was over 100 µM in each case.
In the case of `Nc1n[nH]c(=O)[nH]1`, the TGI in the test with SNB-78 CNS, in the test on IGROV1 ovarian, in the test with DMS 114 small cell lung and in the test on HOP-62 NSCLC was over 100 µM each time.
As to `CCC(=O)C(c1ccccc1)c1ccccn1` (stereo not given), the TGI with T-47D breast, with 786-0 renal, in the test with HS 578T breast, in the test with IGROV1 ovarian, in the test with MDA-N and in the test on HOP-62 NSCLC was over 100 µM throughout. Besides, the TGI in the test on DU-145 prostate and with MDA-MB-231 breast was over 100 µM throughout.

These data come from PubChem BioAssay (NCI).
